Measurements as given in patent US20070009533A1 (priority 2005, published 2007).

Molecular target: T1, MDR1 function in K562/R7 cells (Homo sapiens, UniProt P08183)
T1 construct: endogenous in cells; host or cells: K562/R7 cells
Format: cell-based
Procedure: The loaded and washed cells were cultured at 37° C. in 0.5 ml lacking or containing the indicated concentrations of drug for the indicated amount of time. Control cells were placed on ice immediately after loading and, as indicated by the symbol to the far right at MFI=1172, the cells had been loaded with dye.

T1 sequence (P08183 whole entry): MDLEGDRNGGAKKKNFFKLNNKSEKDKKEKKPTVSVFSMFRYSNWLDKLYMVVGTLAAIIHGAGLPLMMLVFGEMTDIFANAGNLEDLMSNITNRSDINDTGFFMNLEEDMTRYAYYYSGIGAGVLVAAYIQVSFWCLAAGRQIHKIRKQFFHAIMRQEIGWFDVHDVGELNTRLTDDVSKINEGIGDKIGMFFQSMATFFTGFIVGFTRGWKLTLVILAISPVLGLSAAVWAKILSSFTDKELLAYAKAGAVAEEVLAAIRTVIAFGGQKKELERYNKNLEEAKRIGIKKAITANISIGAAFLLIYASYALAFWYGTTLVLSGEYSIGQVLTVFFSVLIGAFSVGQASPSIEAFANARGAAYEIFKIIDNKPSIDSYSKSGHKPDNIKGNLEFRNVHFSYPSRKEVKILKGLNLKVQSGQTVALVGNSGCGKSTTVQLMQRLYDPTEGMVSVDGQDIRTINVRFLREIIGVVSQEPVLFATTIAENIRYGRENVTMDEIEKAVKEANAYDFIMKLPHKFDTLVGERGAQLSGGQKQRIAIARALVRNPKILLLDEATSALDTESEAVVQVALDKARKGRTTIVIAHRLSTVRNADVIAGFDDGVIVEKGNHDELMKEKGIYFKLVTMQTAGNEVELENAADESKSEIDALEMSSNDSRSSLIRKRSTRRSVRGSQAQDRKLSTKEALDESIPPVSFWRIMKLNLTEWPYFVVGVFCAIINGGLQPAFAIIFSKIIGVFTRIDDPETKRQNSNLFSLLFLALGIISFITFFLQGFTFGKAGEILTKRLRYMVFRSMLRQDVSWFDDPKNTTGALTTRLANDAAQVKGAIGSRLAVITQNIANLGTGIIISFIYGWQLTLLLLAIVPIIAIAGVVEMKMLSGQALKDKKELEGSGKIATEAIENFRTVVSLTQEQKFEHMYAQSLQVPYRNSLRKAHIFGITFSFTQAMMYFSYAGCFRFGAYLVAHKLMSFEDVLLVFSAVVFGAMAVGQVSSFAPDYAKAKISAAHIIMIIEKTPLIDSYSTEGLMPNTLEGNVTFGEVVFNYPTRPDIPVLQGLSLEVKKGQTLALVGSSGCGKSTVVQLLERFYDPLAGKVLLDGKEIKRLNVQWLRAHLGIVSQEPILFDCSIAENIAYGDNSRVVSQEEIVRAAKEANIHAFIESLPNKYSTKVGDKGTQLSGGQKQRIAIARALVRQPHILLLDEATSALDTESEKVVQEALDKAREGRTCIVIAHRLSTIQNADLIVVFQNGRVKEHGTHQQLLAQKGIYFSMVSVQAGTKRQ

SMILES: O[C@@H](COc1cccc2ncccc12)CN1CCN([C@@H]2c3ccccc3[C@@H]3[C@H](c4ccccc42)C3(F)F)CC1 [zosuquidar]
- effect on dye release during efflux incubation: inhibited dye release in a concentration-dependent manner
